A melting point compilation (Tetko et al.)

Row | Compound | melting point [°C]
1 | CCOC(=O)NC(=S)Nc1sc2c(c1C(=O)OCC)CCN(Cc1ccccc1)C2 | 206
2 | Sc1nc2cc(Cl)ccc2[nH]1 | 300
3 | CCC(CC)C(N)CC(=O)O (stereo not drawn) | 213 to 214
4 | COc1ccc2c(OC)c3ccoc3nc2c1OC | 177
5 | COc1cc2c(cc1OC)C(c1cc(Cl)ccc1[N+](=O)[O-])=NCC2 | 169 to 170
6 | Oc1ccc(C=Cc2cc(O)cc(O)c2)cc1 | 254
7 | CN1CCN(C(=O)OC2C3=C(SCCS3)C(=O)N2c2ccc3ccc(Cl)nc3n2)CC1 (stereo not drawn) | 280
8 | c1cnc(-c2noc(C3CCNCC3)n2)cn1 | 87 to 89
9 | N#C/C(=C/c1ccc(Cl)cc1Cl)c1nc2ccccc2c(=O)[nH]1 | 298 to 300
10 | COc1cccc(C(=O)C(=O)c2cccc(OC)c2)c1 | 82
11 | Nc1ccc(F)cc1N | 86 to 88
12 | O=C(Oc1ccccc1C(=O)O)c1ccccc1O | 147
13 | CC(NC(=O)OC(C)(C)C)C(=O)N1CCCC1C(=O)OCc1ccccc1 (stereo not drawn) | 68 to 70
14 | O=Cc1cccc2cc[nH]c12 | 88
15 | Cc1ccc(O)c(C(O)c2ccccc2)c1 (stereo not drawn) | 103
16 | COc1ccc2c(c1)CC2O (stereo not drawn) | 39 to 41
17 | N#C/C(=N/Nc1ccc(F)cc1)c1nc(-c2ccc(Cl)cc2)cs1 | 225
18 | CC/C(=N\O)C1=CC2(C)CCC1C2(C)C (stereo not drawn) | 107
19 | O=C1C=CC(=O)[C@@H]2CC3=C(CC4=C(C3)C[C@H]3C(=O)C=CC(=O)[C@H]3C4)C[C@H]12 | 335 to 340
20 | CCOP(=S)(OCC)SCn1nnc2ccccc2c1=O | 53
21 | CCOP(=S)(OCC)Oc1cnc2ccccc2n1 | 31.5
22 | Nc1c(C=Cc2ccccc2)ccc2c1C(=O)c1ccccc1C2=O | 214
23 | CC(C)(C)OC(=O)NC(CI)C(=O)OCc1ccccc1 (stereo not drawn) | 81
24 | CN(C)c1ccc(C=Nc2n[nH]c(N=Cc3ccc(N(C)C)cc3)c2Cc2ccc(Cl)cc2)cc1 | 260 to 262

Row | Compound | melting point [°C]
25 | Cc1ccc(OC(C)(C)C(=O)O)c2c1CCC2 | 89 to 90
26 | O=C(O)c1ccc2[nH]c3c(c2c1)CCCC3 | 266 to 268
27 | O=C(C=Cc1ccc(-c2cccc([N+](=O)[O-])c2)o1)c1ccccc1 | 146 to 147
28 | CC1(C)CC(=O)CC(C)(C)C1 | 11 to 12
29 | N#CC(C#N)=Cc1ccc(O)cc1 | 189
30 | Cc1c2c(c(C)c3c1CC3=O)C(=O)C2 | 188
31 | O=C(O)C1(O)CC(O)C(O)C(O)C1 (stereo not drawn) | 166 to 168
32 | CCC(C)(C)S | -104
33 | O=C1SC(Cl)(Cl)c2nc3c(cc21)C(=O)SC3(Cl)Cl | 178 to 185
34 | Cc1cc2ccccc2cc1C | 105
35 | CC(=O)NC1CCSC1=O (racemic) | 110
36 | C/C(=N\NC(=O)c1ccccn1)c1c(O)c2ccccc2n(-c2ccccc2)c1=O | 288 to 290
37 | FC=C(F)F | -78
38 | O=C(C=CC(=O)OCC(F)(F)C(F)(F)C(F)(F)C(F)(F)C(F)(F)C(F)(F)C(F)(F)F)OCC(F)(F)C(F)(F)C(F)(F)C(F)(F)C(F)(F)C(F)(F)C(F)(F)F | 82 to 84
39 | CN(C)C1C(=O)C(=C(N)O)C(=O)C2(O)C(=O)C3=C(O)c4c(O)ccc(Cl)c4C(O)C3CC12 (stereo not drawn) | 222
40 | CC(=O)c1c(O)ccc2ccccc12 | 65
41 | Brc1ccc2cccnc2c1 | 34
42 | CCN(CC)C(=S)Cl | 45 to 50
43 | O=C(C=Cc1cccc([N+](=O)[O-])c1)c1ccc(F)cc1 | 166 to 167
44 | O=C(O)c1cccc2c1OCC2 | 170 to 171
45 | O=[N+]([O-])OCC(CO[N+](=O)[O-])O[N+](=O)[O-] | 14
46 | ClC=CCCl (mixture of isomers) | -50
47 | OCc1cccnc1N1CCCC1 | 74 to 76
48 | CC1=CC2(C)C3C(=O)OC(=O)C3C1C1C(=O)OC(=O)C12 (stereo not drawn) | 268 to 270
